The subject of data set [1] is smooth muscle cell line (A7r5). The data set can be described thus: Cell contraction/relaxation on silicon sheet, smooth muscle cells. The class given is cell-based. As to the method:
Lung biopsy was obtained from a Sprague Dawley rat, divided in small tissue slices, placed in culture dishes, and maintained then in organ culture in Dulbecco's modified Eagle's medium (GibcoBRL, Life Technologie) containing 10% decomplemented fetal bovine serum (FBS) supplemented with 100 U/ml penicillin, 100 μg/ml streptomycin, 4 mM I-glutamine, at 37° C., in 5% CO2. Cells were maintained during 2-3 weeks (2-8 passages), replacing medium frequently. At confluence, cells were detached from the culture dish with 0.125% trypsin-EDTA mixture (Sigma) for 10 minutes at 37° C., resuspended in complete medium, and seeded over silicon-coated tissue culture dishes at 3.5×10^3 cells/cm^2. One to two days after, cells were treated with the appropriate peptide at 10 or 50 μM, and peptide-induced cell contraction/relaxation effect followed for 1-3 hours by live videomicroscopy. A smooth muscle cell line (A7r5) kept in similar conditions was also used to follow the peptide-induced effects on these cells grown over silicon sheet.
Live videomicroscopy was performed under controlled temperature and CO2 conditions using a Zeiss Axiovert 200M (Zeiss, Oberkochem, Germany), equipped with a spinning disk Nipkow confocal head (Yokogawa CSU10), Photometrics CoolSNAP-HQ CCD camera and Metamorph 6.0 acquisition software (Visitron Systems, Puchheim, Germany). […]

The next data set concerns rat lung fibroblast (LF). The data set can be described thus: Cell contraction/relaxation on wrinkling silicone substrate, live videomicroscopy. The class given is cell-based. The note with it: 10 μM and 50 μM. Here is the method:
To study the effect(s) of the peptides on muscle cells, which associate with neurosecretory cells at neuromuscular junctions, peptides were cultured with rat lung fibroblast (LF) grown over wrinkling substrate (silicon) which can mimic the effects of contraction. These cells have a myofibroblastic phenotype, e.g., production of TGF-β, which make them suitable for cellular contraction/relaxation studies.
Wrinkling silicone substrates were prepared as essentially described previously (Harris, et al., Science. 208:177-179, 1980; Hinz, et al., Mol Biol Cell. 12:2730-41, 2001). Briefly, 50 μl of silicone (poly dimethyl siloxane; 30.000 centistokes, Dow Corning, Midland, Mich.) were deposited onto a 35 mm round glass coverslip at the bottom of a self-made observation chamber, which was centrifuged at 1.000 rpm for 2 minutes to spread the viscous fluid. The silicone surface was then crosslinked by passing it through a Bunsen flame; a flaming time of 1 second produced a surface stiffness that restricted wrinkle formation to fibroblasts with high contractile force (Hinz et al., supra). The polymerized silicone surface was finally coated with 10 μg/ml collagen type I (Sigma) for 2 hours at 37° C. Lung fibroblast cells were seeded at a density of 3.5×10^3 cells/cm^2 and cultured for 1-2 days before the experiment. […]

Another data set relates to PC-12 cells. The data set can be described thus: Actin cytoskeleton organization, phalloidin-TRITC staining. Type of data set: cell-based, rat. As to the method: Slides with PC-12 cells were prepared as stated previously for localization studies. Briefly, cells were exposed to FITC-labeled or unlabeled peptides, at various concentrations, for 30 minutes, fixed and then permeabilized. Subsequently, F-actin was fluorescently labeled with phalloidin-Tetramethyl Rhodamine Iso-Thiocyanate (TRITC) (Sigma Aldrich) conjugate, diluted on saponin buffer (0.25 μg/ml), and nuclear staining with DAPI dihydrochloride (Sigma Aldrich) (0.02 μg/ml), at room temperature for maximum 30 minutes. Finally, slides were mounted and sealed, and stored at 4° C. protected from light. The effect of the peptides to actin polymerization was analyzed by confocal microscopy, as described before.

For another data set, the system named is PC12 cells. Type of data set: cell-based, rat. As to the method: […]. Very little toxicity was present at 24 hours, and cytotoxicity at 48 hours was only slightly greater than at 24 hours. Cytotoxicity generally dipped to approximately 90% live cells when peptides were administered at 500 μM.
The test system of a further data set is PC12-ES cells. The data set can be described thus: Evoked neurotransmitter secretion by undifferentiated PC12-ES cells, furin inhibitor and arginine rich peptides. Type of data set: cell-based, rat. The settings on record: potassium 80 mM, 15 minutes.
Another data set addresses Recombinant furin (Homo sapiens, UniProt P09958). Put plainly: biochemical. Type of data set: biochemical. Here is the method:
To determine if the peptides described herein have an effect on the activity of PC enzymes which are involved in a condition or disorder such as fibrosis, the effect of the peptides on furin activity in vitro was measured as percent inhibition of cleavage of the furin substrate fluorogenic t-butyloxycarbonyl (Boc)-RVRR-7-amino-4-methylcoumarin (MCA).
All in vitro enzyme studies were performed at room temperature in a final volume of 50-100 μl in 96-well flat-bottom black plates. The buffer consisted of 100 mM HEPES, 1 mM CaCl2, 0.5% TritonX-100, and 1 mM 2-β-mercaptoethanol pH 7.5. Assays were performed using Boc-RVRR-MCA as fluorogenic substrate at 100 μM. Recombinant furin (0.8 U of activity) was incubated with Boc-RVRR-MCA in the presence or absence of varying concentrations of synthetic peptides D-9Rac/am (SEQ ID NO. 15), L-Bel1 (SEQ ID NO. 3), or L-9K (SEQ ID NO. 6). One unit of activity is defined as the amount of furin that can release 1 μmol of MCA from the fluorogenic Boc-RVRR-MCA per min at 30° C. The release of highly fluorescent 7-amino 4-methyl coumarin (MCA) from the Boc-RVRR-MCA was monitored by a spectrofluorometer instrument at excitation and emission wavelengths of 370 nm/460 nm. […]

The values that follow come from patent US8318898B2, “Synthetic peptides for use as inhibitors of neurotransmitter secretion and as inducers of cellular relaxation” (Universite de Lausanne, priority 2005, dated 2012).

Molecules are shown by their SMILES.

Chain of Recombinant furin (P09958 108-794): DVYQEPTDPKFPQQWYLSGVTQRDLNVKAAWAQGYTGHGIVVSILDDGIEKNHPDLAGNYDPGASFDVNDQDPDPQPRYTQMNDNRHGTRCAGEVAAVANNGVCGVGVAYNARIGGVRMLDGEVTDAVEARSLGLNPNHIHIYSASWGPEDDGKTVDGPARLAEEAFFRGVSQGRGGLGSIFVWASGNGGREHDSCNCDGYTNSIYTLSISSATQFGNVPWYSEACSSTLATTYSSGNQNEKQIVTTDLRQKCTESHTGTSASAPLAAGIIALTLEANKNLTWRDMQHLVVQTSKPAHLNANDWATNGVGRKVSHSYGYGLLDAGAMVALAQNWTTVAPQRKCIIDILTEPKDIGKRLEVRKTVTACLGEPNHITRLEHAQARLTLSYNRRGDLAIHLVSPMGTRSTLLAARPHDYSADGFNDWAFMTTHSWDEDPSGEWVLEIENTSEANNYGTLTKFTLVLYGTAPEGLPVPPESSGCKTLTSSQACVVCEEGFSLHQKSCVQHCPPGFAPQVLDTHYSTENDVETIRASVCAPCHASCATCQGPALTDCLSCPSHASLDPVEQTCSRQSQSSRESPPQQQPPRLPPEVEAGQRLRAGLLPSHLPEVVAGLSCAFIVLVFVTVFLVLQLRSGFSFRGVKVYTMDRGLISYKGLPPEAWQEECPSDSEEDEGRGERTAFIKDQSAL

For the molecule `N=C(N)NCCC[C@H](NC(=O)CNC(=O)[C@H](Cc1ccc(O)cc1)NC(=O)CN)C(=O)N[C@@H](CCCCN)C(=O)N[C@@H](CCCCN)C(=O)N[C@@H](CCCNC(=N)N)C(=O)N[C@@H](CCCNC(=N)N)C(=O)N[C@@H](CCC(N)=O)C(=O)N[C@@H](CCCNC(=N)N)C(=O)N[C@@H](CCCNC(=N)N)C(=O)N[C@@H](CCCNC(=N)N)C(=O)NCC(=O)O` [L-Tat], the “relaxing effect on smooth muscle cells” value in data set [1] is listed as “same effect”. For the same molecule, the “relaxing effect on lung myofibroblasts on silicon substrate” value in the data set with rat lung fibroblast (LF) was “slow but constant loss of silicon substrate wrinkles and cell detachment”. The “effect on actin content and organization at higher concentration” value in the data set on PC-12 cells (100 μM) is “almost lost”. For the same molecule, in the data set with PC-12 cells (2 to 10 μM, 30 minutes, labeled or unlabeled), the “effect on actin content and organization” value was “decreased actin content and organization”. Also, the “cytotoxicity (MTT)” value with PC12 cells is “no marked cytotoxicity”. For the same molecule, the “inhibition of evoked neurotransmitter secretion by PC12-ES cells” value came to 24.6% in the data set with PC12-ES cells (10 μM) and 56.4% in the data set on PC12-ES cells (100 μM). Also, the “concentration for complete blockade of cleavage of Boc-RVRR-MCA by furin” value on Recombinant furin was found to be 3.5 µM. The “inhibition of in vitro furin activity (in words)” value on Recombinant furin (Boc-RVRR-MCA 100 μM as substrate) was “inhibited to completion”. The Ki on Recombinant furin (furin, Boc-RVRR-MCA substrate, read-out: Ki(app)) was determined as 370 nM.
